Laboratory results as given in US20240138411A1, “METHOD OF […] OF SUGARCANE” (CORTEVA AGRISCIENCE LLC, priority 2021, published 2024).

Tested on: sugarcane
Experiment: Sugarcane flowering inhibition field trials, floral induction rated on UFSCar scale
Format: in vivo
Conditions: 475 g ai/ha
Experimental: In order to explore the activity of florpyrauxifen as flowering inhibitor in sugarcane, field studies were carried out. Florpyrauxifen-benzyl was tested at rates from 2 to 20 grams active ingredient per hectare (g ai/ha) and compared to Ethrel® 720 (Bayer), the standard treatment. The flowering inhibition effect was assessed by checking the floral induction in sugarcane through the percentage scale recommended by UFSCar (Federal University of Sao Carlos, Sao Paulo, Brazil).
Four trials were carried out in sugarcane where florpyrauxifen-benzyl (Rinskor®), applied at a rate of 2 to 20 g ai/ha, was compared to ethephon (Ethrel® 720) applied at a rate of 475 g ai/ha. Control plots of untreated sugarcane were also evaluated. Rinskor® and Ethrel® 720 were diluted in water and a single application for each study (backpack sprayer) was performed delivering 50 L of spray solution per ha at the reproductive stage of sugarcane and at a maximum 150 days before harvest. The activity of florpyrauxifen-benzyl as a flowering inhibitor was measured via assessments (Scale of flowering inhibition—see chart 1) performed at 0, 14, 30, 45, 60, 75, 90, 120, 150 days after application, or up to harvest time. The assessments were measured in sugarcane stems, rating the flowering induction according to the UFSCar scale shown below. Significance of treatment effect was evaluated with F-approximate test (α=0.1) and least square means from different treatments were compared with Tukey's test.

Structure (SMILES): O=P(O)(O)CCCl [ETHREL720, 2-chloroethylphosphonic acid]
- % Referring to Scale (Table 1, 75 DAA): 12.4%
- Frequency 1/1 (0%) (Table 1, 75 DAA): 17.5%
- Frequency 2/1 (15%) (Table 1, 75 DAA): 82.5%
- Frequency 3/1 (30%) (Table 1, 75 DAA): 0.0%
- Frequency 4/1 (50%) (Table 1, 75 DAA): 0.0%
- Frequency 4/2 (80%) (Table 1, 75 DAA): 0.0%
- Frequency 4/3 (90%) (Table 1, 75 DAA): 0.0%
- Frequency 4/4 (100%) (Table 1, 75 DAA): 0.0%
- % Referring to Scale (Table 1, 90 DAA): 13.1%
- Frequency 1/1 (0%) (Table 1, 90 DAA): 20.0%
- Frequency 2/1 (15%) (Table 1, 90 DAA): 72.5%
- Frequency 3/1 (30%) (Table 1, 90 DAA): 7.5%
- Frequency 4/1 (50%) (Table 1, 90 DAA): 0.0%
- Frequency 4/2 (80%) (Table 1, 90 DAA): 0.0%
- Frequency 4/3 (90%) (Table 1, 90 DAA): 0.0%
- Frequency 4/4 (100%) (Table 1, 90 DAA): 0.0%
- % Referring to Scale (Table 1, 120 DAA): 18.1%
- Frequency 1/1 (0%) (Table 1, 120 DAA): 0.0%
- Frequency 2/1 (15%) (Table 1, 120 DAA): 87.5%
- Frequency 3/1 (30%) (Table 1, 120 DAA): 10.0%
- Frequency 4/1 (50%) (Table 1, 120 DAA): 0.0%
- Frequency 4/2 (80%) (Table 1, 120 DAA): 2.5%
- Frequency 4/3 (90%) (Table 1, 120 DAA): 0.0%
- Frequency 4/4 (100%) (Table 1, 120 DAA): 0.0%
- % Referring to Scale (Table 2, 75 DAA): 0.8%
- Frequency 1/1 (0%) (Table 2, 75 DAA): 95.0%
- Frequency 2/1 (15%) (Table 2, 75 DAA): 5.0%
- Frequency 3/1 (30%) (Table 2, 75 DAA): 0.0%
- Frequency 4/1 (50%) (Table 2, 75 DAA): 0.0%
- Frequency 4/2 (80%) (Table 2, 75 DAA): 0.0%
- Frequency 4/3 (90%) (Table 2, 75 DAA): 0.0%
- Frequency 4/4 (100%) (Table 2, 75 DAA): 0.0%
- % Referring to Scale (Table 2, 90 DAA): 51.8%
- Frequency 1/1 (0%) (Table 2, 90 DAA): 0.0%
- Frequency 2/1 (15%) (Table 2, 90 DAA): 0.0%
- Frequency 3/1 (30%) (Table 2, 90 DAA): 25.0%
- Frequency 4/1 (50%) (Table 2, 90 DAA): 52.5%
- Frequency 4/2 (80%) (Table 2, 90 DAA): 22.5%
- Frequency 4/3 (90%) (Table 2, 90 DAA): 0.0%
- Frequency 4/4 (100%) (Table 2, 90 DAA): 0.0%
- % Referring to Scale (Table 2, 120 DAA): 98.0%
- Frequency 1/1 (0%) (Table 2, 120 DAA): 0.0%
- Frequency 2/1 (15%) (Table 2, 120 DAA): 0.0%
- Frequency 3/1 (30%) (Table 2, 120 DAA): 0.0%
- Frequency 4/1 (50%) (Table 2, 120 DAA): 0.0%
- Frequency 4/2 (80%) (Table 2, 120 DAA): 2.5%
- Frequency 4/3 (90%) (Table 2, 120 DAA): 15.0%
- Frequency 4/4 (100%) (Table 2, 120 DAA): 82.5%
- % Referring to Scale (Table 3, 90 DAA): 0.0%
- Frequency 1/1 (0%) (Table 3, 90 DAA): 100.0%
- Frequency 2/1 (15%) (Table 3, 90 DAA): 0.0%
- Frequency 3/1 (30%) (Table 3, 90 DAA): 0.0%
- Frequency 4/1 (50%) (Table 3, 90 DAA): 0.0%
- Frequency 4/2 (80%) (Table 3, 90 DAA): 0.0%
- Frequency 4/3 (90%) (Table 3, 90 DAA): 0.0%
- Frequency 4/4 (100%) (Table 3, 90 DAA): 0.0%
- % Referring to Scale (Table 3, 120 DAA): 1.5%
- Frequency 1/1 (0%) (Table 3, 120 DAA): 90.0%
- Frequency 2/1 (15%) (Table 3, 120 DAA): 10.0%
- Frequency 3/1 (30%) (Table 3, 120 DAA): 0.0%
- Frequency 4/1 (50%) (Table 3, 120 DAA): 0.0%
- Frequency 4/2 (80%) (Table 3, 120 DAA): 0.0%
- Frequency 4/3 (90%) (Table 3, 120 DAA): 0.0%
- Frequency 4/4 (100%) (Table 3, 120 DAA): 0.0%
- % Referring to Scale (Table 3, 150 DAA): 0.0%
- Frequency 1/1 (0%) (Table 3, 150 DAA): 100.0%
- Frequency 2/1 (15%) (Table 3, 150 DAA): 0.0%
- Frequency 3/1 (30%) (Table 3, 150 DAA): 0.0%
- Frequency 4/1 (50%) (Table 3, 150 DAA): 0.0%
- Frequency 4/2 (80%) (Table 3, 150 DAA): 0.0%
- Frequency 4/3 (90%) (Table 3, 150 DAA): 0.0%
- Frequency 4/4 (100%) (Table 3, 150 DAA): 0.0%
- % Referring to Scale (Table 4, 90 DAA): 4.9%
- Frequency 1/1 (0%) (Table 4, 90 DAA): 67.5%
- Frequency 2/1 (15%) (Table 4, 90 DAA): 32.5%
- Frequency 3/1 (30%) (Table 4, 90 DAA): 0.0%
- Frequency 4/1 (50%) (Table 4, 90 DAA): 0.0%
- Frequency 4/2 (80%) (Table 4, 90 DAA): 0.0%
- Frequency 4/3 (90%) (Table 4, 90 DAA): 0.0%
- Frequency 4/4 (100%) (Table 4, 90 DAA): 0.0%
